Converted amounts (≈) assume the structure as drawn. Like-named read-outs stand apart in the source and are kept apart here.
Legend:
[1] = tested on: SIRT1/2/3; experiment: SIRT1/2/3 biochemical assay, statements spanning all three enzymes; design: species or system human; details: for SIRT1/2/3 inhibitory activity, in words: across SIRT1, SIRT2 and SIRT3
[2] = target: T1, SIRT2 (Homo sapiens, UniProt Q8IXJ6); experiment: SIRT2 deacetylation of Trp 5-mer peptide, OAADPr mass spec assay; assay type: biochemical; design: His-SIRT2(1-389)
T1 sequence (Q8IXJ6 1-389): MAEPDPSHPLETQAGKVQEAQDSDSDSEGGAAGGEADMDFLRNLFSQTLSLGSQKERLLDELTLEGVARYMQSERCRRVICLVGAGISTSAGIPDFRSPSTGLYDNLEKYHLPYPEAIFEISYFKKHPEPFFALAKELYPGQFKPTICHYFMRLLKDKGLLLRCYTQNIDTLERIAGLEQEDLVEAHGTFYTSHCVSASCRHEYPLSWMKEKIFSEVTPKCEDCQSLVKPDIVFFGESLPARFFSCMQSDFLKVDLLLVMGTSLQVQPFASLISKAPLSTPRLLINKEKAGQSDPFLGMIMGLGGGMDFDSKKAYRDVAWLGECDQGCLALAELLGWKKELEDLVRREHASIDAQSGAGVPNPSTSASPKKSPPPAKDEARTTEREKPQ

[3] = target: T2, SIRT1 (Homo sapiens, UniProt Q96EB6); experiment: SIRT1 deacetylation of Trp 5-mer peptide, OAADPr mass spec assay
T2 sequence (Q96EB6 1-747): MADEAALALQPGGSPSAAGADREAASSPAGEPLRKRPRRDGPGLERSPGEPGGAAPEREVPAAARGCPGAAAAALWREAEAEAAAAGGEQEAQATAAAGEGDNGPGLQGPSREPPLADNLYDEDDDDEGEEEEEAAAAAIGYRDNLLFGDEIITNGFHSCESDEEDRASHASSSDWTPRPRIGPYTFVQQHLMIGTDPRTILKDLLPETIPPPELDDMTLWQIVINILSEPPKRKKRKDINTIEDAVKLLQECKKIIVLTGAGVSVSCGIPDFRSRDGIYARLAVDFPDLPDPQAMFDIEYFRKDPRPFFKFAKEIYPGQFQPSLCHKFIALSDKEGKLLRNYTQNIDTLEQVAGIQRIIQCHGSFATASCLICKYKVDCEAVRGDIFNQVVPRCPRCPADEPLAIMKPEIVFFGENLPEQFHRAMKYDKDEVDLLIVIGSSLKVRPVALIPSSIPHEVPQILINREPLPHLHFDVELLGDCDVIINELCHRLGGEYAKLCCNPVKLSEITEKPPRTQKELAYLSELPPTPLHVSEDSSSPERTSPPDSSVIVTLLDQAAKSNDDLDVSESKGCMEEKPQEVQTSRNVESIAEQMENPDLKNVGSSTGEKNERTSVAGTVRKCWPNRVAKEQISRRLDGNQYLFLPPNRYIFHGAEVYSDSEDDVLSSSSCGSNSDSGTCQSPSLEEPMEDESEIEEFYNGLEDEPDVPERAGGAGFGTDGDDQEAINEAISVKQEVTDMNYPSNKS
Method: (§1) All assays were performed at room temperature in reaction buffer (50 mM HEPES, pH 7.5, 150 mM NaCl, 1 mM DTT, 0.05% BSA). […] To prepare the assays for analysis, 20 μL of reaction volume was mixed in 80 μL of 50:50 acetonitrile:methanol mixture. […] Peak data was integrated using RapidFire Integrator software (Agilent, Santa Clara, Calif.).

[4] = target: T3, SIRT3 (Homo sapiens, UniProt Q9NTG7); experiment: SIRT3 deacetylation of Trp 5-mer peptide, OAADPr mass spec assay
T3 sequence (Q9NTG7 102-399): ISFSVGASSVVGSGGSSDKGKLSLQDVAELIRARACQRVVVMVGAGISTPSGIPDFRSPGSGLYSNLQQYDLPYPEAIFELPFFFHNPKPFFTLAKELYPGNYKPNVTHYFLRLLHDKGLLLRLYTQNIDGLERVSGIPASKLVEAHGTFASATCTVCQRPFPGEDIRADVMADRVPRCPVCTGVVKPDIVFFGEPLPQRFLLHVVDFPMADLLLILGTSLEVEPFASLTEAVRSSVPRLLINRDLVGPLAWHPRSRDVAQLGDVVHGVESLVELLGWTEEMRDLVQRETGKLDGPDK
Method: as §1

[5] = Kinetic solubility by chemi-luminescent nitrogen detection (CLND); assay type: physicochemical; details: aqueous buffer, kinetic from dmso stock, DMSO stock incubated 1 hr in phosphate buffered saline pH 7.4, filtered
[6] = HPLC based lipophilicity assay (CHI LogD); assay type: physicochemical; details: CHI values by reverse phase HPLC transformed to a LogD scale
[7] = tested on: sirtuin mediated deacetylation of acetyl-p65; experiment: Acetyl-p65 assay in U2OS cells (AlphaScreen); assay type: cell-based; details: FIG. 6
Method: In certain embodiments, U2OS cells were counted by hemocytometer and diluted to a concentration of 1.5×10^5 cell/ml. BacMam p65 and BacMam p300-HAT viruses were added to the diluted cells at 1% and 1% (vol/vol). 40 μl aliquots of the cell suspensions containing the viruses were plated onto a 384 well plate with a multi-drop dispenser. After 7 hours, a 2-fold serial dilution of Compounds 25, 28 and Compound 4, hereafter referred to as the test compounds, was carried out in DMSO. The test compounds were subsequently diluted with medium (20-fold) in an intermediate compound plate, and 4 μL of each test compound was transferred by a liquid handler from the intermediate plate to a cell plate. 24 hours post viral transduction, the medium in the cell plate was removed by inverting and flicking the plate, and blotting the plate with paper towels. 30 μl of lysis buffer (25 mM HEPES pH 7.4, 0.5% Triton X-100, 1 mg/ml Dextran 500, 0.1% BSA, 300 mM NaCl, 2 mM MgCl2, 1×protease inhibitor cocktail) was added to each well to lyse the cells. After incubation of the cells with lysis buffer for 30 minutes at room temp, 10 μl and 3 μl aliquots of the cell lysates were transferred to assay plates, and the assay plate containing 3 μl aliquot of cell lysates was diluted with an additional 7 μl of lysis buffer to obtain a final volume of 10 μl. Acetyl-p65 and total p65 protein in cell lysates were measured using the AlphaScreen assay format (PerkinElmer). The antibodies used to detect acetyl-p65 protein were biotinylated anti-HA antibody (Roche, 12158167001) and anti-acetylated K310-p65 antibody (Abcam, ab19870). The antibodies used to detect total p65 protein were biotinylated anti-HA antibody (Roche, 12158167001) and anti-p65 antibody (Santa Cruz, sc109). […] After incubating the plates for another 2 hrs in the dark, the plates were read by a PHERAstar microplate reader. […]

[8] = target: T2, SIRT1; details: at 1 mM; Galli et al. (2012); cited from earlier work
[9] = target: T1, SIRT2; details: at 1 mM; Galli et al. (2012); cited from earlier work
[10] = Trp 5-mer peptide and NAD at KM, mean of at least three determinations, read-out: IC50 (μM) SIRT2
[11] = Trp SIRT2_IC50, Trp 5-mer peptide, class symbols
[12] = IC50 (μM) SIRT1, Trp 5-mer peptide and NAD at KM, mean of at least three determinations
[13] = Trp SIRT1_IC50, Trp 5-mer peptide, class symbols
[14] = IC50 (μM) SIRT3, Trp 5-mer peptide and NAD at KM, mean of at least three determinations
[15] = Trp SIRT3_IC50, Trp 5-mer peptide, class symbols
[16] = read-out: IC50 (μM) SIRT1, Trp 5-mer peptide and NAD at KM, mean of at least three determinations
[17] = read-out: IC50 (μM) SIRT3, Trp 5-mer peptide and NAD at KM, mean of at least three determinations
[18] = Trp 5-mer peptide, class symbols, read-out: Trp SIRT2_IC50

Structure (SMILES) | IC50 [2, 10] | IC50 [3, 13] | IC50 [4, 15] | IC50 [2, 18] | other results
CCNc1ncnc2cc(C(N)=O)sc12 [Compound 22, 4-(Ethylamino)thieno[3,2-d]pyrimidine-6-carboxamide] | 49 µM | > 10 µM | > 10 µM | – | SIRT1/2/3 inhibitory activity, in words [1]: not conserved; IC50 [2, 11]: > 10 µM; IC50 [3, 12]: > 50 µM; IC50 [4, 14]: > 50 µM
NC(=O)c1cc2ncnc(N3CCCCC3)c2s1 [Compound 21, 4-(Piperidin-1-yl)thieno[3,2-d]pyrimidine-6-carboxamide] | 1.4 µM | > 10 µM | 1 to 10 µM | – | SIRT1/2/3 inhibitory activity, in words [1]: micromolar levels; IC50 [2, 11]: 1 to 10 µM; IC50 [3, 16]: 15 µM; IC50 [4, 17]: 8.6 µM
NC(=O)c1cc2ncnc(Cl)c2s1 [Compound 14, 4-chlorothieno[3,2-d]pyrimidine-6-carboxamide] | > 50 µM | > 10 µM | > 10 µM | > 10 µM | SIRT1/2/3 inhibitory activity, in words [1]: not conserved; IC50 [3, 12]: > 50 µM; IC50 [4, 14]: > 50 µM
CC(C)(C)C(=O)NCCC1CCN(c2nccc3cc(C(N)=O)sc23)CC1 [Compound 38, 7-(4-(2-pivalamidoethyl)piperidin-1-yl)thieno[2,3-c]pyridine-2-carboxamide] | 0.3 µM | < 1 µM | 1 to 10 µM | < 1 µM | fold reduction in SIRT1/2/3 potency ([1]; compared to Compound 28, range across the three enzymes): 30-63 fold; IC50 [3, 16]: 0.49 µM; IC50 [4, 17]: 2.1 µM
CCNC(=O)c1ccc(C(=O)NCCN2CCN(c3ncnc4cc(C(N)=O)sc34)CC2)s1 [Compound 11d] | 0.005 µM | < 1 µM | – | < 1 µM | solubility at 1 hr [5]: 65 µM (≈ 31.7 µg/mL); IC50 [3, 16]: 0.031 µM; LogD [6]: 1.32
CCNC(=O)c1ccc(C(=O)NCCC2CCN(c3ncnc4cc(C(N)=O)sc34)CC2)s1 [Compound 11c] | – | – | – | – | solubility at 1 hr [5]: 9 µM (≈ 4.38 µg/mL); LogD [6]: 2.09
CCNC(=O)c1cccc(C(=O)NCCC2CCN(c3ncnc4cc(C(N)=O)sc34)CC2)c1 [Compound 11a, N^1-(2-(1-(6-carbamoylthieno[3,2-d]pyrimidin-4-yl)piperidin-4-yl)ethyl)-N^3-ethylisophthalamide] | 0.005 µM | < 1 µM | < 1 µM | < 1 µM | solubility at 1 hr [5]: 19 µM (≈ 9.13 µg/mL); IC50 [3, 12]: 0.014 µM; IC50 ([4]; SIRT3 IC50, as stated in text): 0.001 µM; LogD [6]: 2.09
NC(=O)C1CCCc2c1[nH]c1ccc(Cl)cc21 (stereo not shown) [4, EX-527, EX-527, reference compound] | – | – | – | – | inhibition of sirtuin mediated deacetylation of acetyl-p65 [7]: inhibit
CCNC(=O)c1cccc(C(=O)NCCN2CCN(c3ncnc4cc(C(N)=O)sc34)CC2)c1 [Compound 11b] | 0.01 µM | < 1 µM | – | < 1 µM | solubility at 1 hr [5]: 220 µM (≈ 106 µg/mL); IC50 [3, 16]: 0.067 µM; LogD [6]: 1.45
CC(=S)NCCC1CCN(c2ncnc3cc(C(N)=O)sc23)CC1 [Compound 25, 4-(4-(2-ethanethioamidoethyl)piperidin-1-yl)thieno[3,2-d]pyrimidine-6-carboxamide] | 0.03 µM | < 1 µM | – | – | inhibition of sirtuin mediated deacetylation of acetyl-p65 [7]: inhibit; IC50 [2, 11]: < 1 µM; IC50 [3, 16]: 0.056 µM
c1cncc(-c2c[nH]nn2)c1 [3-(1H-1,2,3-triazol-4-yl)pyridine] | – | – | – | – | SIRT1 activity remaining [8]: 88%; SIRT2 activity remaining [9]: 92%
NC(=O)c1cc2ncnc(N3CCC(C4CCNCC4)CC3)c2s1 [Compound 56] | – | < 1 µM | < 1 µM | < 1 µM | –
NC(=O)c1cc2ncnc(N3CCC(CCNC(=O)C4CCCC4)CC3)c2o1 [Compound 88] | – | < 1 µM | < 1 µM | < 1 µM | –
Cc1nc(N2CCN(CCNC(=O)OC(C)(C)C)CC2)c2sc(C(N)=O)cc2n1 [Compound 149] | – | > 10 µM | 1 to 10 µM | 1 to 10 µM | –
CC(C)(C)C(=O)NCCN1CCN(c2ncnc3cc(C(N)=O)oc23)CC1 [Compound 97] | – | < 1 µM | < 1 µM | < 1 µM | –
NC(=O)c1cc2ncnc(N3CCC(C4CCNCC4)CC3)c2o1 [Compound 100, 4-([4,4′-bipiperidin]-1-yl)furo[3,2-d]pyrimidine-6-carboxamide] | – | > 10 µM | 1 to 10 µM | > 10 µM | –
Cc1nc(N2CCC(CCN3CCCC3)CC2)c2sc(C(N)=O)cc2n1 [Compound 146] | – | 1 to 10 µM | < 1 µM | 1 to 10 µM | –
Cc1nc(N2CCN(CCNC(=O)C(C)(C)C)CC2)c2sc(C(N)=O)cc2n1 [Compound 156] | – | 1 to 10 µM | 1 to 10 µM | < 1 µM | –

From US20160002273A1, “THIENO[3,2-D]PYRIMIDINE-6-CARBOXAMIDES AND ANALOGUES AS SIRTUIN MODULATORS” (GLAXOSMITHKLINE LLC, priority 2013, published 2016)
